Assay results from BindingDB's records for doi:10.1021/jm900597q (Gilead Sciences, 2009).

How the values were obtained:
Ribonuclease H1 = target: T1, Ribonuclease H1 (Homo sapiens, UniProt O60930); experiment: Fluorescence-Based RNase H Assay; details: pH 8; 20 °C
T1 sequence (O60930 whole entry): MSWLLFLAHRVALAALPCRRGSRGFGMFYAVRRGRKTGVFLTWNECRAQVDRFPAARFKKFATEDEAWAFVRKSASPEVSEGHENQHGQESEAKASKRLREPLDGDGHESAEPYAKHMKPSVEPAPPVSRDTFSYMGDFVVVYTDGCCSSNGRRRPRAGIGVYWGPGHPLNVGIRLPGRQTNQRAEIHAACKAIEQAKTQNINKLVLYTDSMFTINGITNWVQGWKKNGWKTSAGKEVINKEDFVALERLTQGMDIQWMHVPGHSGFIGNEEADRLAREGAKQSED

[1] = target: Reverse transcriptase/RNaseH (Human immunodeficiency virus 1, UniProt Q72547); experiment: Fluorescence-Based RNase H Assay; details: pH 8; 20 °C

| SMILES | IC50 (Ribonuclease H1) [µM] | IC50 [1] [µM] |
| --- | --- | --- |
| O=C(O)c1nc(-c2ccccc2)nc(O)c1O | > 100 | 13 |
| CC(C)c1ccc(O)c(=O)c(O)c1 [hydroxytropolone, 3] |  | 0.66 |
